Several values for one entry are separate records, joined by “and”; a condition that tells them apart may be missing. Equal entries are not always repeated. Inconclusive results and toxic doses are left out. The calls were made as follows: active = survival T/C of 150% or more; inactive = T/C below 125% in these data. Peptide text beside a SMILES is read from it.
Test system: P388 leukemia ip, CD2F1 mice, survival T/C
Assay: NCI In Vivo Anticancer Drug Screen. Data for tumor model P388 Leukemia (intraperitoneal) in CD2F1 (CDF1) mice
Conditions: endpoint: median survival time, higher = longer survival
Procedure, shortened: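 Mice carrying the transplanted tumor received test compound or vehicle. Survival was recorded in each group, and the value is the treated-group measurement divided by that of the vehicle-treated control group.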

[1] = dose: 60.0 mg/kg/injection, schedule: Q01DX005 (ip), vehicle: saline with Tween-80
[2] = dose: 120.0 mg/kg/injection, schedule: Q01DX005 (ip), vehicle: saline with Tween-80
[3] = dose: 240.0 mg/kg/injection, schedule: Q01DX005 (ip), vehicle: saline with Tween-80
[4] = dose: 60.0 mg/kg/injection, schedule: Q01DX005 (ip), vehicle: saline
[5] = dose: 120.0 mg/kg/injection, schedule: Q01DX005 (ip), vehicle: saline
[6] = dose: 240.0 mg/kg/injection, schedule: Q01DX005 (ip), vehicle: saline
[7] = dose: 50.0 mg/kg/injection, schedule: Q01DX005 (ip), vehicle: Klucel (hydroxypropylcellulose) (HPC)
[8] = dose: 100.0 mg/kg/injection, schedule: Q01DX005 (ip), vehicle: Klucel (hydroxypropylcellulose) (HPC)
[9] = dose: 200.0 mg/kg/injection, schedule: Q01DX005 (ip), vehicle: Klucel (hydroxypropylcellulose) (HPC)
[10] = dose: 12.5 mg/kg/injection, schedule: Q01DX009 (ip), vehicle: saline
[11] = dose: 25.0 mg/kg/injection, schedule: Q01DX009 (ip), vehicle: saline
[12] = dose: 50.0 mg/kg/injection, schedule: Q01DX009 (ip), vehicle: saline

Measured: T/C

O=c1[nH]c2cc([N+](=O)[O-])ccc2nc1/C=C(\O)c1cccnc1
inactive: dose: 60.0 mg/kg/injection, schedule: Q01DX005 (ip), vehicle: Klucel (hydroxypropylcellulose) (HPC) 94 % of control | dose: 120.0 mg/kg/injection, schedule: Q01DX005 (ip), vehicle: Klucel (hydroxypropylcellulose) (HPC) 88 % of control | dose: 240.0 mg/kg/injection, schedule: Q01DX005 (ip), vehicle: Klucel (hydroxypropylcellulose) (HPC) 94 % of control

OCc1c(CO)c2cccn2c2c1cnn2-c1ccccc1
inactive: [1] 100 % of control | [2] 90 % of control | [3] 89 % of control

Nn1cnc2[nH]ncc2c1=O
inactive: [4] 99 % of control | [5] 99 % of control | [6] 105 % of control

COc1cc2c(cc1C(C)c1cc(OC)c(OC)c(OC)c1)OCO2 (stereo not given)
inactive: [7] 99 % of control | [8] 97 % of control | [9] 91 % of control

CC(=O)OC1COC(n2nnc3c(=O)[nH]cnc32)C(OC(C)=O)C1OC(C)=O (stereo not given)
inactive: dose: 100.0 mg/kg/injection, schedule: Q01DX001 (ip), vehicle: saline with Tween-80 103 % of control | dose: 200.0 mg/kg/injection, schedule: Q01DX001 (ip), vehicle: saline with Tween-80 103 % of control | dose: 400.0 mg/kg/injection, schedule: Q01DX001 (ip), vehicle: saline with Tween-80 103 % of control

CN(C)C(C(N(C)C)=[N+](C)C)=[N+](C)C
inactive: [10] 108 % of control and 109 % of control and 89 % of control | [11] 110 % of control and 111 % of control | [12] 100 % of control and 103 % of control and 88 % of control

O=C(Nc1ccc(N=Nc2ccc(S(=O)(=O)O)cc2)cc1)c1ccc(N=Nc2c(S(=O)(=O)O)cc(O)c3c(NC(=O)c4ccccc4)cc(S(=O)(=O)O)cc23)cc1
inactive: dose: 50.0 mg/kg/injection, schedule: Q01DX005 (ip), vehicle: saline with Tween-80 95 % of control | dose: 100.0 mg/kg/injection, schedule: Q01DX005 (ip), vehicle: saline with Tween-80 93 % of control | dose: 200.0 mg/kg/injection, schedule: Q01DX005 (ip), vehicle: saline with Tween-80 95 % of control

CCOC(=O)c1sc2nc(C)cc(C)c2c1N
inactive: dose: 6.25 mg/kg/injection, schedule: Q01DX005 (ip), vehicle: saline with Tween-80 95 % of control | dose: 12.5 mg/kg/injection, schedule: Q01DX005 (ip), vehicle: saline with Tween-80 100 % of control | dose: 25.0 mg/kg/injection, schedule: Q01DX005 (ip), vehicle: saline with Tween-80 98 % of control

COC(=O)/C(C)=C\n1ccccc1=O
inactive: [4] 97 % of control | [5] 99 % of control | [6] 98 % of control

C=C1C(=O)OC2/C=C(\C)CC/C=C(\C)CC(OC(=O)/C(=C/C)CO)C12 (stereo not given)
inactive: dose: 25.0 mg/kg/injection, schedule: Q01DX001 (ip), vehicle: Klucel (hydroxypropylcellulose) (HPC) 101 % of control | dose: 50.0 mg/kg/injection, schedule: Q01DX001 (ip), vehicle: Klucel (hydroxypropylcellulose) (HPC) 96 % of control | dose: 100.0 mg/kg/injection, schedule: Q01DX001 (ip), vehicle: Klucel (hydroxypropylcellulose) (HPC) 110 % of control

OCC(CO)c1ccccc1
inactive: dose: 37.5 mg/kg/injection, schedule: Q04DX003 (ip), vehicle: saline 97 % of control | dose: 75.0 mg/kg/injection, schedule: Q04DX003 (ip), vehicle: saline 100 % of control | dose: 150.0 mg/kg/injection, schedule: Q04DX003 (ip), vehicle: saline 100 % of control

C1SSCC2=C1CSSC2
inactive: [1] 100 % of control | [2] 100 % of control | [3] 107 % of control

O/N=C/C=N/O.O/N=C/C=N/O.[Ni]
inactive: dose: 0.78 mg/kg/injection, schedule: Q01DX009 (ip), vehicle: saline 100 % of control | dose: 1.56 mg/kg/injection, schedule: Q01DX009 (ip), vehicle: saline 98 % of control | dose: 3.13 mg/kg/injection, schedule: Q01DX009 (ip), vehicle: saline 91 % of control | dose: 6.25 mg/kg/injection, schedule: Q01DX009 (ip), vehicle: saline 97 % of control | [10] 100 % of control

CC(C)C(NC(=O)C(N)CCCCN)C(=O)O (stereo not drawn) (H-Lys-Val-OH; configuration not given here)
inactive: dose: 100.0 mg/kg/injection, schedule: Q04DX003 (ip), vehicle: saline 96 % of control | dose: 200.0 mg/kg/injection, schedule: Q04DX003 (ip), vehicle: saline 97 % of control | dose: 400.0 mg/kg/injection, schedule: Q04DX003 (ip), vehicle: saline 97 % of control

Nc1nc(N)c2nnn(C3OC(CO)C(O)C3O)c2n1 (stereo not given)
inactive: dose: 3.0 mg/kg/injection, schedule: Q01DX009 (ip), vehicle: saline 119 % of control | dose: 12.0 mg/kg/injection, schedule: Q01DX009 (ip), vehicle: saline 115 % of control | [10] 122 % of control | [11] 105 % of control | [12] 96 % of control and 105 % of control

CCc1nc(N)nc(N)c1-c1ccc(NCCCN)c(N)c1
inactive: dose: 12.5 mg/kg/injection, schedule: Q01DX005 (ip), vehicle: Klucel (hydroxypropylcellulose) (HPC) 101 % of control | dose: 25.0 mg/kg/injection, schedule: Q01DX005 (ip), vehicle: Klucel (hydroxypropylcellulose) (HPC) 106 % of control | [7] 110 % of control and 97 % of control

O=C(CCN1CCCC1)c1ccccc1
inactive: [10] 98 % of control | [11] 100 % of control | [12] 100 % of control

Nc1oc([N+](=O)[O-])cc1[N+](=O)[O-]
inactive: dose: 100.0 mg/kg/injection, schedule: Q01DX009 (ip), vehicle: saline 106 % of control | dose: 200.0 mg/kg/injection, schedule: Q01DX009 (ip), vehicle: saline 118 % of control

CCOC(=O)C(Cc1ccccc1)NO (stereo not given)
inactive: dose: 6.25 mg/kg/injection, schedule: Q01DX009 (ip), vehicle: saline with Tween-80 98 % of control | dose: 12.5 mg/kg/injection, schedule: Q01DX009 (ip), vehicle: saline with Tween-80 100 % of control

COC1=C(OC)S[C@H]2[C@@H]3C[C@@H]([C@H]4CC=C[C@@H]34)[C@H]2S1
inactive: [7] 100 % of control | [8] 103 % of control | [9] 97 % of control

[O-][n+]1nccnc1N1CCCCC1
inactive: dose: 100.0 mg/kg/injection, schedule: Q04DX002 (ip), vehicle: saline 90 % of control | dose: 200.0 mg/kg/injection, schedule: Q04DX002 (ip), vehicle: saline 98 % of control | dose: 400.0 mg/kg/injection, schedule: Q04DX002 (ip), vehicle: saline 100 % of control

CCC(C)c1ccc(S(=O)(=O)Nc2cc(Cl)c([N+](=O)[O-])cc2O)cc1 (stereo not given)
inactive: dose: 50.0 mg/kg/injection, schedule: Q01DX009 (ip), vehicle: Klucel (hydroxypropylcellulose) (HPC) 104 % of control | dose: 100.0 mg/kg/injection, schedule: Q01DX009 (ip), vehicle: Klucel (hydroxypropylcellulose) (HPC) 100 % of control | dose: 200.0 mg/kg/injection, schedule: Q01DX009 (ip), vehicle: Klucel (hydroxypropylcellulose) (HPC) 102 % of control

CC(=O)CC(=O)OCc1ccccc1
inactive: dose: 100.0 mg/kg/injection, schedule: Q04DX003 (ip), vehicle: saline with Tween-80 100 % of control | dose: 200.0 mg/kg/injection, schedule: Q04DX003 (ip), vehicle: saline with Tween-80 100 % of control | dose: 400.0 mg/kg/injection, schedule: Q04DX003 (ip), vehicle: saline with Tween-80 100 % of control

c1ccc(N=N/C(=N\Nc2ccccc2)SCCS/C(N=Nc2ccccc2)=N/Nc2ccccc2)cc1
inactive: dose: 25.0 mg/kg/injection, schedule: Q01DX009 (ip), vehicle: saline with Tween-80 98 % of control and 97 % of control | dose: 50.0 mg/kg/injection, schedule: Q01DX009 (ip), vehicle: saline with Tween-80 93 % of control and 97 % of control | dose: 100.0 mg/kg/injection, schedule: Q01DX009 (ip), vehicle: saline with Tween-80 111 % of control and 92 % of control | dose: 200.0 mg/kg/injection, schedule: Q01DX009 (ip), vehicle: saline with Tween-80 98 % of control

Reference: PubChem BioAssay AID330 (DTP/NCI, 2004)
